# Source: patent US11787781B2, “Inhibiting ataxia telangiectasia and RAD3-related protein (ATR)” (Celator Pharmaceuticals, Inc., priority 2016, dated 2023)
# Columns and labels:
# [1] = pKa; format: physicochemical; conditions: method not stated
# [2] = Loading of ATR inhibitors into TEA-SOS liposomes and liposome characterization; format: physicochemical
# Protocol: Sodium sucrose octasulfate (equivalent weight 144.8) is a sodium salt of sucrose derivate in which all hydroxyl groups have formed sulfuric acid esters. Sixty gram of sucrose octasulfate (SOS) sodium salt were dissolved in 150 ml of di water, heated with shaking (swirling) of a 50° C. water bath. The solution was passed through a column packed with sulfonated polystyrene divinylbenzene copolymer cation exchange resin beads (Dowex 50Wx8-100-200 mesh, Dow Chemical Co.). […] The eluent was monitored using a conductivity detector. The SOS fraction was collected corresponding to conductivity peak and immediately titrated with neat triethylamine (TEA) solution to pH 6-6.5. The solution was analyzed for residual sodium by potentiometry using a sodium-sensitive electrode and for SOS concentration using a refractometer. The solution having residual sodium less than 0.25% was diluted with di water to final SOS concentration 1.1 M and then sterile-filtered using Millipore 0.22 μm Steri-Top filter.
# Cholesterol (Chol) was purchased from Avanti Polar Lipids, Alabaster, Ala., USA, hydrogenated soy phosphocholine (HSPC) and methoxy-poly(ethylene glycol)-1,2-distearoyl-sn-glyceryl (PEG2000-DSG) were obtained from Lipoid GmbH, Ludwigshafen, Germany.
# Chol, HSPC and PEG2000-DSG were co-dissolved in 100% ethanol (200-proof, Sigma cat #: 459828) at a molar ratio of 3:2:0.15 at 65° C. The solution of TEA-SOS (10 times the volume of added ethanol) was mixed with the lipid solution at 60-65° C. and stirred at this temperature until a homogeneous milky suspension of multilamellar vesicles was formed. This suspension was extruded 3 times through 5 stacked polycarbonate track-etched filters (Corning Nuclepore) with the pore size of 100 nm using argon pressure extruder (Lipex Biomembranes) at 60-65° C., and resulting unilamellar liposomes were quickly chilled in ice and then stored at 4-6° C. before use. Concentration of phospholipids was measured by phosphate assay and particle diameter was recorded on a Malvern Nanosizer.
# Prior to drug loading, the TEA-SOS gradient was created by removing excess of un-trapped TEA-SOS using gel-chromatography (Sepharose CL-4B, Pharmacia). Osmolarity of liposomes was balanced using 50% dextrose solution. Final dextrose concentration was 15%.
# ATR inhibitors were dissolved in 15% dextrose solutions in di water by titration with 1 M HCl and heating at 45° C. and then filtered with 0.2 micron NALGENE 13 mm Syringe Filters. Drug concentration in the solution was detected by HPLC. […]
# The liposome-drug mixture was incubated with occasional agitation for 30 minutes at 65° C. The incubation mixture was quickly cooled down and incubated for 10 minutes at 0° C., then allowed to attain ambient temperature. Un-encapsulated drug was removed by gel chromatography on Sephadex G-25 (Amersham Pharmacia) eluted with HBS-6.5 buffer (5 mM 2-(4-(2-hydroxyethyl)-piperazino)-ethylsulfonic acid (HEPES), 144 mM NaCl, pH 6.5). Liposome fractions eluted in the void volume were combined, sterilized by 0.2 micron filtration, and stored at 4-6° C. before use. The liposomes were characterized by lipid concentration, drug concentration, and particle size (Table 2).
# [3] = test system: panel of lung cancer cell lines; assay: […]-GLO cell viability, free drug monotherapy and combination screening; format: cell-based
# Protocol: In vitro efficacy study was done using […]-GLO Luminescent Cell Viability Assay (Promega) with Corning Cat #3707 384 well White Clear bottom plates. Cells were plated (1000 cells/well) in 384 well format and allowed to incubate at 37° C. for 24 hours. Monotherapy drugs were added at the 24 hr time point and then allowed to incubate at 37° C. for 24 hours. At the 48 hr time point the drugs in media were removed, washed with PBS, and fresh media was added. Cells were then allowed to incubate at 37° C. for 72 hours. […]
# At the 120 hr time point media was removed and […]-GLO (CTG) reagent was added (1:1 ratio with PBS). Plates were read using a luminometer (Envision Multilabel reader). […]
# Data was analyzed using an in-house algorithm developed using Matlab (Mathworks, Natick Mass.). […]
# Data quality control was performed to ensure that the concentration range is optimal according to these rules: (1) if the lowest concentration kills more than 70% of the cells the concentration range is deemed too potent (2) if the highest concentration kills less than 30% of the cells, the concentration range is deemed low or the cell line is too resistant. Additionally, goodness of the fit was evaluated using R^2 and R^2<0.9 is flagged as a bad fit.
# [4] = target: ATR/ATRIP(h) (Homo sapiens (Human), UniProt Q13535); assay: Eurofins ATR/ATRIP HTRF assay, p53 Ser15 phosphorylation; format: biochemical; parameters: key to Top / Bottom: % of DMSO positive control activity; conditions: ATP 10 μM
# Sequence of ATR/ATRIP(h) (Q13535 whole entry): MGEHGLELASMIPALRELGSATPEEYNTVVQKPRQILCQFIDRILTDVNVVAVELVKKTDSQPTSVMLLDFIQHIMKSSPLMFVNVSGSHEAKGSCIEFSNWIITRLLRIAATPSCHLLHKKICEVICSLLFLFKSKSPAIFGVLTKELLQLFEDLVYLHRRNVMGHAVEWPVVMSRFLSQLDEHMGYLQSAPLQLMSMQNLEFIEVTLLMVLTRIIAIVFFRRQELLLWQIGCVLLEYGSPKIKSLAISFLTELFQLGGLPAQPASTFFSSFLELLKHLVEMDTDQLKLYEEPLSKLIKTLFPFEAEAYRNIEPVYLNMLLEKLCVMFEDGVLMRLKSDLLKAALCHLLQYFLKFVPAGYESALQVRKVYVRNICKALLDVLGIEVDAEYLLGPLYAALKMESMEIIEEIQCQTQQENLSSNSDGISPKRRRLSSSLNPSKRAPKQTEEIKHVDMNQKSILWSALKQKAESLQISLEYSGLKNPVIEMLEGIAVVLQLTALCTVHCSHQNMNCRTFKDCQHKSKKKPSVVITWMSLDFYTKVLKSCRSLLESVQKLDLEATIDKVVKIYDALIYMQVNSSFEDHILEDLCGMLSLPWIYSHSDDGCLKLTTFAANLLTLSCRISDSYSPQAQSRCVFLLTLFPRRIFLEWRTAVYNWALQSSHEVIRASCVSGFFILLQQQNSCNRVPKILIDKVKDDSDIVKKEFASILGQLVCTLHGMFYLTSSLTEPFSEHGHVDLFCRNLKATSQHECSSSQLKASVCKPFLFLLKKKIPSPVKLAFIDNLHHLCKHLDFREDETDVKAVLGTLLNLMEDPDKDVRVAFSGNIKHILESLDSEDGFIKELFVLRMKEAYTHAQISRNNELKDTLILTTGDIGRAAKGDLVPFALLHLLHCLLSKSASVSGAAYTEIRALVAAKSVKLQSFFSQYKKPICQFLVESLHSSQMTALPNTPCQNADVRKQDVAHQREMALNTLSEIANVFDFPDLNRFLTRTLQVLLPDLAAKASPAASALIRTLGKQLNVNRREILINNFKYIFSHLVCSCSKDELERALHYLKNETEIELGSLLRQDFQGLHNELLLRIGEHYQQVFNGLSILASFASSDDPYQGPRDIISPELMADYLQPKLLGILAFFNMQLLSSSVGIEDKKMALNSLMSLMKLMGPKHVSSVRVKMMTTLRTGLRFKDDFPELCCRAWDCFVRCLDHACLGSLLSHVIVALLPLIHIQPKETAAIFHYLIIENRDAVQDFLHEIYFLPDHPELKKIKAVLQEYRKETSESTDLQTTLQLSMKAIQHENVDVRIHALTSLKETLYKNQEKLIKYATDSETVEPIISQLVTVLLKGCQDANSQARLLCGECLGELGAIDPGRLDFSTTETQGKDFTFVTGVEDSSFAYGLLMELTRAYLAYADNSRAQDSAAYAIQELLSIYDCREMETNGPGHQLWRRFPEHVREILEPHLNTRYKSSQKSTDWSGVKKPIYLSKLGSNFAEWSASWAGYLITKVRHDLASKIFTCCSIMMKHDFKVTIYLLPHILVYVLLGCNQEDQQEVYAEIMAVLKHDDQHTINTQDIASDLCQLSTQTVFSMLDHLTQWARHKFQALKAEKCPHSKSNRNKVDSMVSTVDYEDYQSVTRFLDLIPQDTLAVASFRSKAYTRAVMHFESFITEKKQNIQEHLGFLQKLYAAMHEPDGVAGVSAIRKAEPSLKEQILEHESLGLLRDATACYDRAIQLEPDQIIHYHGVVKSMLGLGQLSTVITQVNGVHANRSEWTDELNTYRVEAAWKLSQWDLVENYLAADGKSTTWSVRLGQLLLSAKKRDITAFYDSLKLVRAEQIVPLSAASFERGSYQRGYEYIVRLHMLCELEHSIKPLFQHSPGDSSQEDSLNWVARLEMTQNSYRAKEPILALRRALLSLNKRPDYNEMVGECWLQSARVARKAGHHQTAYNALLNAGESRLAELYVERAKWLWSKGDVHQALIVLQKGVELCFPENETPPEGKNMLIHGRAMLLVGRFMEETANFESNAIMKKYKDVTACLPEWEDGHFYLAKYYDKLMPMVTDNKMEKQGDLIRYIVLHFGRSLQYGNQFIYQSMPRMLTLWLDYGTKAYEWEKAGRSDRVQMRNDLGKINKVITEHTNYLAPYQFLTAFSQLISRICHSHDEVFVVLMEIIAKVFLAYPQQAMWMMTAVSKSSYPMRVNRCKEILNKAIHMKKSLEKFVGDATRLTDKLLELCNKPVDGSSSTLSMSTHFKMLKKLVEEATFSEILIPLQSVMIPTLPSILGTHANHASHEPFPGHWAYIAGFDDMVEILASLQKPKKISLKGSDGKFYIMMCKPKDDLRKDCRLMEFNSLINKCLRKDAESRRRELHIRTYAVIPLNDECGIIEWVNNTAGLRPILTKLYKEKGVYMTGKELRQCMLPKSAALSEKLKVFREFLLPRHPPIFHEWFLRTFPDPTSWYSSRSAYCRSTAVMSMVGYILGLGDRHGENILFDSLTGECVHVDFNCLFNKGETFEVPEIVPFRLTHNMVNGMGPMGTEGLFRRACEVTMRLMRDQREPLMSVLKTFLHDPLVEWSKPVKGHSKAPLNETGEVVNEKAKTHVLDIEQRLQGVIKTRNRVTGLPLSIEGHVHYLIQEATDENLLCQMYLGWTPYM
# Sequence of ATR/ATRIP(h) (Q8WXE1 whole entry partner): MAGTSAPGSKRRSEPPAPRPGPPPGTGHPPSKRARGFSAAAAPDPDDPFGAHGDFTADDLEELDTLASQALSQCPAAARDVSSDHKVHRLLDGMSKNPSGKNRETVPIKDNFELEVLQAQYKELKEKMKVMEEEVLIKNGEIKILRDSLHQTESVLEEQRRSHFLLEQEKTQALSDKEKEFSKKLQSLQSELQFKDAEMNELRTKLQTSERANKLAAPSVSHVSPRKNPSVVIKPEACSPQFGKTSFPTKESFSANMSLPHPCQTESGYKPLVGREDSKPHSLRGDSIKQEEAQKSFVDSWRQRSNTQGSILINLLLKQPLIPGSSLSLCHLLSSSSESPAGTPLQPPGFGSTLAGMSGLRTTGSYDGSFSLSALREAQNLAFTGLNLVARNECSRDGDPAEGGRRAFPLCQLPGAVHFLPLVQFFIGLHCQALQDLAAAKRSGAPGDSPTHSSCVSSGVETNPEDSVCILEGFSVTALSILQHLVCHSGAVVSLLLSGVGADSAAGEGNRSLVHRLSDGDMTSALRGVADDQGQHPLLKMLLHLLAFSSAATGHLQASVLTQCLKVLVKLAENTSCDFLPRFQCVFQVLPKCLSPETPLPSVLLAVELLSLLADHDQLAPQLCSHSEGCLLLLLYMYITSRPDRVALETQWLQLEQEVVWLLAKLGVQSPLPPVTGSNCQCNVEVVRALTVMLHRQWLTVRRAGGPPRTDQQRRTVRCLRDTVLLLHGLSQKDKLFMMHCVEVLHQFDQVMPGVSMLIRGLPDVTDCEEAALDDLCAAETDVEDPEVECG
# Protocol: An EC50 determination was conducted for the supplied set of compounds against the kinase ATR/ATRIP(h), using a linear enzyme concentration in the Eurofins ATR/ATRIP HTRF assay using GST tagged full length p53 as the substrate.
# ATR/ATRIP phosphorylation of p53 on Ser15 was measured via formation of an energy transfer complex consisting of a Europium-labelled anti-phospho Ser15 p53 antibody and an anti-GST-d2 antibody. All data points were performed in duplicate with DMSO controls and EDTA blanks.
# ATR/ATRIP(h) was pre-diluted in 25 mM HEPES pH 8.0, 0.01% Brij-35, 1% Glycerol, 5 mM DTT, 1 mg/mL BSA and assayed in 25 mM HEPES pH 8.0, 0.01% Brij-35, 1% Glycerol, 10 mM MnCl2 using 30 nM GST, cMyc p53-(hu,FL) as the substrate. The reaction was initiated with the addition of ATP to a final concentration of 10 μM.
# The individual replicates were expressed in terms of the % of the DMSO positive control activity. The mean activity (% control) of each inhibitor concentration was plotted against the inhibitor concentration, and EC50 values were determined using […] PRISM.
# The data expressed as % control activity were plotted against inhibitor concentration, and fitted to a four parameter logistic using […] PRISM. Graphs for each compound are shown alongside the data in the accompanying Excel report.
# [5] = four parameter logistic fit of % control activity
compound,measurement,setting,value
"CN(C)CCC1CCN(CCS(=O)(=O)c2ccc(-c3cnc(N)c(C(=O)Nc4ccccc4)n3)cc2)CC1 [Compound 5, 3-amino-6-(4-((2-(4-(2-(dimethylamino)ethyl)piperidin-1-yl)ethyl)sulfonyl)phenyl)-N-phenylpyrazine-2-carboxamide]",pKa,[1],10
same,Loading efficiency (%),"[2]; TEA-SOS liposomes, Compound 1 at ratio before loading 379",84 ± 8%
same,Drug/lipid ratio after loading,"[2]; TEA-SOS liposomes, input ratio before loading (Compound 1: 379)",619 ± 110
same,"Liposome size, (mean ± SD) nm",[2]; liposomes loaded with the ATR inhibitor,120 ± 29 nm
same,"potency (IC50) of chemotherapeutic agent combined with ATR inhibitor, vs Compound 6","[3]; 1 μg/ml ATR inhibitor with Carboplatin, Gemcitabine or Compound B",more potent
same,"monotherapy cell kill IC50, folds lower than Compound 6","[3]; monotherapy, 24 h exposure",~3 folds
same,EC50,[4],234 nM
same,Hill,[4]; four parameter logistic fit,−0.819
same,Bottom,[4]; [5],1
same,Top,[4]; [5],95
